# According to ChEMBL document CHEMBL3421576, “N-((1,3-Diphenyl-1H-pyrazol-4-yl)methyl)anilines: A novel class of anti-RSV agents” (Bioorg Med Chem Lett, 2015):
# What was measured:
# [1] = Cytotoxicity against bovine MDBK cells assessed as cell viability after 72 hrs by MTT method; type: cell-based, Bos taurus; conditions: cattle
# [2] = tested on: Bovine viral diarrhea virus 1; assay: Antiviral activity against BVDV infected in bovine MDBK cells assessed as protection against viral-induced cytopathogenecity after 3 to 4 days by MTT method; type: functional, organism-based
# [3] = Selectivity index, ratio of CC50 for bovine MDBK cells to EC50 for BVDV infected in bovine MDBK cells
# [4] = Cytotoxicity against hamster BHK21 cells assessed as cell viability after 72 hrs by MTT method; type: cell-based, Mesocricetus auratus, BHK-21
# Yellow fever virus = assay: Antiviral activity against YFV infected in hamster BHK21 cells assessed as protection against viral-induced cytopathogenecity after 3 to 4 days by MTT method; type: functional, organism-based, BHK-21
# [5] = Cytotoxicity against African green monkey Vero 76 cells assessed as cell viability after 48 to 96 hrs by MTT method; type: cell-based; conditions: chlorocebus sabaeus
# [6] = tested on: Respiratory syncytial virus; assay: Antiviral activity against RSV infected in African green monkey Vero 76 cells after 5 days by plaque reduction assay; type: functional, organism-based
# [7] = Selectivity index, ratio of CC50 for African green monkey Vero 76 cells to EC50 for RSV infected in African green monkey Vero 76 cells
# [8] = Cytotoxicity against human MT4 cells assessed as cell viability after 96 hrs by MTT method; type: cell-based
# [9] = tested on: Human immunodeficiency virus 1; assay: Antiviral activity against HIV1 infected in human MT4 cells assessed as protection against viral-induced cytopathogenecity after 4 days by MTT method; type: functional, organism-based; conditions: Human immunodeficiency virus 1, MT4, 96 h
# [10] = tested on: Mammalian orthoreovirus 1; assay: Antiviral activity against Reovirus 1 infected in hamster BHK21 cells assessed as protection against viral-induced cytopathogenecity after 3 to 4 days by MTT method; type: functional, cell-based; conditions: Mammalian orthoreovirus 1, BHK-21
# Coxsackievirus B5 = assay: Antiviral activity against Coxsackievirus B5 infected in African green monkey Vero 76 cells after 3 days by plaque reduction assay; type: functional, organism-based
# Enterovirus C = assay: Antiviral activity against Poliovirus Sb-1 infected in African green monkey Vero 76 cells after 2 days by plaque reduction assay; type: functional, organism-based
# Vaccinia virus = assay: Antiviral activity against Vaccinia virus infected in African green monkey Vero 76 cells after 3 days by plaque reduction assay; type: functional, organism-based, Orthopoxvirus vaccinia
# Human alphaherpesvirus 1 = assay: Antiviral activity against HSV1 infected in African green monkey Vero 76 cells after 3 days by plaque reduction assay; type: functional, organism-based
# [11] = tested on: Vesicular stomatitis virus; assay: Antiviral activity against VSV infected in African green monkey Vero 76 cells after 2 days by plaque reduction assay; type: functional, organism-based
# [12] = Selectivity index, ratio of CC50 for hamster BHK21 cells to EC50 for YFV infected in hamster BHK21 cells; parameters: species or system BHK-21
# [13] = Bovine viral diarrhea virus isolates and strains, MDBK
# [14] = human respiratory syncytial virus, Vero, 120 h
# [15] = Enterovirus C, Sb-1, Vero, 48 h
# [16] = Orthopoxvirus vaccinia, Vero, 72 h
# [17] = Human alphaherpesvirus 1, Vero, 72 h
# [18] = Vesicular stomatitis virus, Vero, 48 h
Compound,CC50 at 72 h [1] [µM],"EC50 [2, 13] [µM]",CC50 at 72 h [4] [µM],"EC50 (Yellow fever virus; Yellow fever virus, BHK-21) [µM]",CC50 ([5]; Vero 76 cells) [µM],"EC50 [6, 14] [µM]",Ratio CC50/EC50 [7],CC50 at 96 h [8] [µM],EC50 [9] [µM],EC50 [10] [µM],"EC50 (Coxsackievirus B5; Enterovirus B, Vero, 72 h) [µM]",EC50 (Enterovirus C; [15]) [µM],EC50 (Vaccinia virus; [16]) [µM],EC50 (Human alphaherpesvirus 1; [17]) [µM],"EC50 [11, 18] [µM]",other results
Cc1ccc(NCc2cn(-c3ccccc3)nc2-c2ccc(Cl)cc2)cc1,> 100,55,> 100,> 100,> 100,13,>7.7,> 100,> 100,> 100,> 100,> 100,> 100,> 100,> 100,Ratio CC50/EC50 [3]: >1.8
Clc1ccc(NCc2cn(-c3ccccc3)nc2-c2ccc(Br)cc2)cc1,,,,,,,>11.1,,,,,,,,,EC50 ([2]; mdbk): ≥ 100 µM; EC50 (Yellow fever virus; bhk-21): 43 µM; Ratio CC50/EC50 [12]: >2.3; CC50 ([5]; vero 76): > 100 µM; EC50 ([6]; vero): 9 µM; EC50 (Coxsackievirus B5; vero): > 100 µM; EC50 (Enterovirus C; vero): > 100 µM; EC50 (Vaccinia virus; vero): > 100 µM; EC50 (Human alphaherpesvirus 1; vero): > 100 µM; EC50 ([11]; vero): > 100 µM
Brc1ccc(NCc2cn(-c3ccccc3)nc2-c2ccc(Br)cc2)cc1,> 100,> 100,> 100,54,88,8,11,> 100,> 100,> 100,> 88,> 88,> 88,> 88,> 88,Ratio CC50/EC50 [12]: >1.8
Cc1ccc(NCc2cn(-c3ccccc3)nc2-c2ccc(Br)cc2)cc1,> 100,> 100,> 100,> 100,> 100,11,>9.1,> 100,> 100,> 100,> 100,> 100,> 100,> 100,> 100,
Cc1ccc(-c2nn(-c3ccccc3)cc2CNc2ccc(Cl)cc2)cc1,> 100,> 100,> 100,34,> 100,14,>7.1,> 100,> 100,> 100,> 100,> 100,> 100,> 100,> 100,Ratio CC50/EC50 [12]: >2.9
Cc1ccc(-c2nn(-c3ccccc3)cc2CNc2ccc(Br)cc2)cc1,> 100,> 100,> 100,> 100,92,11,8.4,> 100,> 100,> 100,> 92,> 92,> 92,> 92,> 92,
Cc1ccc(NCc2cn(-c3ccccc3)nc2-c2ccc(C)cc2)cc1,> 100,> 100,> 100,> 100,> 100,28,>3.6,> 100,> 100,> 100,> 100,> 100,> 100,> 100,> 100,
Cc1ccc(-c2nn(-c3ccccc3)cc2CNc2ccccc2)cc1,> 100,> 100,> 100,38,52,23,2.3,> 100,> 100,> 100,> 52,> 52,> 52,> 52,> 52,Ratio CC50/EC50 [12]: >2.6
Brc1ccc(-c2nn(-c3ccccc3)cc2CNc2ccccc2)cc1,> 100,> 100,> 100,20,52,9,5.8,> 100,> 100,> 100,> 52,> 52,> 52,> 52,> 52,Ratio CC50/EC50 [12]: >5
FC(F)(F)c1ccc(-c2nn(-c3ccccc3)cc2CNc2ccc(Br)cc2)cc1,64,> 64,28,> 28,17,5,3.4,> 100,> 100,> 28,> 17,> 17,> 17,> 17,> 17,
FC(F)(F)c1ccc(-c2nn(-c3ccccc3)cc2CNc2ccc(Cl)cc2)cc1,44,> 44,31,> 31,10,> 10,,> 100,> 100,> 31,> 80,> 80,> 80,> 80,> 80,
FC(F)(F)c1ccc(NCc2cn(-c3ccccc3)nc2-c2ccccc2)cc1,34,> 34,37,> 37,17,> 17,,> 100,> 100,> 37,> 75,> 75,> 75,> 75,> 75,
FC(F)(F)c1ccc(NCc2cn(-c3ccccc3)nc2-c2ccc(Cl)cc2)cc1,31,> 31,17,> 17,18,> 18,,> 100,> 100,> 17,> 18,> 18,> 18,> 18,> 18,
FC(F)(F)c1ccc(NCc2cn(-c3ccccc3)nc2-c2ccc(C(F)(F)F)cc2)cc1,26,> 26,27,> 37,26,> 26,,> 100,> 100,> 27,> 26,> 26,> 26,> 26,> 26,
Cc1ccc(-c2nn(-c3ccccc3)cc2CNc2ccc(C(F)(F)F)cc2)cc1,> 100,> 100,88,> 100,45,> 45,,> 100,> 100,> 88,> 45,> 45,> 45,> 45,> 45,
FC(F)(F)c1ccc(NCc2cn(-c3ccccc3)nc2-c2ccc(Br)cc2)cc1,46,> 46,20,> 28,28,> 28,,> 100,> 100,> 20,> 28,> 28,> 28,> 28,> 28,
C[C@@]1(O)[C@H](O)[C@@H](CO)O[C@H]1n1ccc(N)nc1=O,,,> 100,,,,,,,6,,,,,,
O=c1cnn([C@@H]2O[C@H](CO)[C@@H](O)[C@H]2O)c(=O)[nH]1 [6-AZAURIDINE],,,> 100,46,10,0.9,11.1,,,,,,,,,Ratio CC50/EC50 [12]: >2.2
Nc1nc2c(ncn2COCCO)c(=O)[nH]1 [ACYCLOVIR],,,,,> 100,,,,,,,,,2.8,,
COc1c(C)c2c(c(O)c1C/C=C(\C)CCC(=O)O)C(=O)OC2 [MYCOPHENOLIC ACID],,,,,19,,,,,,,,1.5,,,
Cc1cc(CCCOc2c(C)cc(-c3noc(C(F)(F)F)n3)cc2C)on1 [PLECONARIL],,,,,80,,,,,,0.005,2.2,,,,
NC(=O)c1ncn([C@@H]2O[C@H](CO)[C@@H](O)[C@H]2O)n1 [RIBAVIRIN],57,19,,,> 100,35,>2.8,,,,,,,,,Ratio CC50/EC50 [3]: 3
